{"source": "patent US10960005B2", "about": "“Treatment of relapsed and/or refractory solid tumors and non-hodgkin's lymphomas” (CELGENE QUANTICEL RESEARCH, INC., priority 2016, dated 2021)", "key": {"[1]": {"system": "LXFS 573 SCLC patient-derived xenograft", "assay_type": "in vivo"}, "NCI-H1417 SCLC xenograft": {"system": "NCI-H1417 SCLC xenograft", "assay_type": "in vivo"}, "[2]": {"conditions": "Etoposide at 24 mg/kg/day SC days 1-3 + Vehicle"}, "[3]": {"conditions": "etoposide monotherapy 24 mg/kg SC"}, "[4]": {"conditions": "etoposide monotherapy 24 mg/kg SC QD×3"}}, "note": "Read-outs that look alike come from different tables or passages of the source."}
{"molecule": "COc1cc([C@@H]2c3cc4c(cc3[C@@H](O[C@@H]3O[C@@H]5CO[C@@H](C)O[C@H]5[C@H](O)[C@H]3O)[C@H]3COC(=O)[C@H]23)OCO4)cc(OC)c1O", "note": "[Etoposide, etoposide, reference compound]", "values": [{"measurement": "% TGD", "setting": "[1]; [2]", "value": 50, "unit": "%"}, {"measurement": "T-C", "setting": "[1]; [2]", "value": 21, "unit": "days"}, {"measurement": "median TTE", "setting": "[1]; [2]", "value": 63, "unit": "days"}, {"measurement": "SS (number of study survivors)", "setting": "[1]; Etoposide at 24 mg/kg/day SC days 1-3 + Vehicle, Day 133, N=8", "value": "0 (na)"}, {"measurement": "% TGD", "setting": "[1]; [3]", "value": 50, "unit": "%"}, {"measurement": "TGD", "setting": "[1]; [3]", "value": 21, "unit": "days"}, {"measurement": "% TGD", "setting": "NCI-H1417 SCLC xenograft; 24 mg/kg Etoposide SC QD × 3", "value": 92, "unit": "%"}, {"measurement": "T-C", "setting": "NCI-H1417 SCLC xenograft; 24 mg/kg Etoposide SC QD × 3", "value": 24, "unit": "days"}, {"measurement": "median TTE", "setting": "NCI-H1417 SCLC xenograft; 24 mg/kg Etoposide SC QD × 3", "value": 50, "unit": "days"}, {"measurement": "% TGD", "setting": "NCI-H1417 SCLC xenograft; [4]", "value": 92, "unit": "%"}, {"measurement": "TGD", "setting": "NCI-H1417 SCLC xenograft; [4]", "value": 24, "unit": "days"}]}
